The test concerns HBV cccDNA (HBeAg as surrogate marker) in HepDES19 cells. As to the kind of experiment: Engineered HepDES19 primary screen assay (HBeAg as surrogate marker for cccDNA). The settings on record: Hepatitis B virus, HepDES19, 120 h. Type of test: cell-based. From the text: The assay was employed to screen for cccDNA inhibitors. HepDES19 is a cccDNA-producing cell line. In this cell line, HBeAg in the cell culture supernatant as surrogate marker, as HBeAg production depends on cccDNA level and activity. HepDES19 is an engineered cell line which contains a 1.1 unit length HBV genome, and pgRNA transcription from the transgene is controlled by Tetracycline (Tet). In the absence of Tet, pgRNA transcription will be induced, but HBV e antigen (HBeAg) could not be produced from this pgRNA due to very short leader sequence before the HBeAg start codon and the start codon is disrupted. Only after cccDNA is formed, the missing leader sequence and start codon mutation would be restored from the 3′-terminal redundancy of pgRNA, and then HBeAg could be synthesized. Therefore, HBeAg could be used as a surrogate marker for cccDNA (Zhou, T. et al., Antiviral Res. (2006), 72 (2), 116-124; Guo, H. et al., J. Virol. (2007), 81 (22), 12472-12484).
HepDES19 cells were seeded at 2×10^6 cells per T150 flask and cultured with the culture medium (Dulbecco's Modified Eagle Medium: Nutrient Mixture F-12 [DMEM-F12, Gibco Cat. 11320-82], 10% Fetal Bovine Serum [FBS, Clontech Cat. 631101], 0.1 mM Non-Essential Amino Acids Solution [NEAA, Gibco Cat. 11140-050], 50 μg/mL Penicillin-Streptomycin [PS, Invitrogen Cat. 15140-163], 500 μg/mL Geneticin [G418, Invitrogen Cat. 10131-027]) containing 3 μg/mL Tet (Sigma, Cat. 87128) for 5 days. Cells were then seeded at 4×10^6 cells per T150 in the same culture medium as described above in the absence of Tet for 8 days. Cells were then harvested and frozen at density of 2×10^6 cells per mL. For compound testing, the frozen cells were thawed and seeded into 96-well plates at a density of 6×10^4 cells per well. At 24 hours after seeding, half log serial dilutions of compounds made with Dimethyl sulfoxide (DMSO, Sigma, Cat. D2650) were further diluted with the same culture medium as described above before they were added to the cells to reach desired final compound concentrations and 1% DMSO concentration. Plates were then incubated at 37° C. for another 5 days before measurement of HBeAg level and cell viability. Intracellular HBeAg level were measured with enzyme-linked immunosorbent assay (ELISA) kit (Shanghai Kehua Diagnostic Medical Products Co., Ltd). Cell viability was assessed using Cell Counting Kit-8 (DonJindo, Cat. CK04-20). IC50 values were derived from the dose-response curve using 4 parameters logistic curve fit method.
The compounds of the present invention were tested for their capacity to inhibit extracellular HBeAg level as described herein.
Turning to `COc1ccc2c(c1Cl)OC(c1ccc(C(F)(F)F)cc1OCCC(=O)O)CC2=O` (stereo not drawn) [Example 4, 3-[2-(8-chloro-7-methoxy-4-oxo-chroman-2-yl)-5-(trifluoromethyl)phenoxy]propanoic Acid], it took 5250 nM to reach half-maximal inhibition (IC50).

Consider `COc1cc(Cl)c2c(c1)C(=O)CC(c1ccc(C(F)(F)F)cc1OCCC(=O)O)O2` (stereo not drawn) [Example 5, 3-[2-(8-chloro-6-methoxy-4-oxo-chroman-2-yl)-5-(trifluoromethyl)phenoxy]propanoic Acid], for which the IC50 is 3060 nM. `O=C(O)CCOc1cc(C(F)(F)F)ccc1C1CC(=O)c2c(O)ccc(Cl)c2O1` (stereo not drawn) [Example 6, 3-[2-(8-chloro-5-hydroxy-4-oxo-chroman-2-yl)-5-(trifluoromethyl)phenoxy]propanoic Acid]: it took 5220 nM to reach half-maximal inhibition (IC50). `Cc1cc(C2CC(=O)c3cccc(Cl)c3O2)c(OCCC(=O)O)cc1Br` (stereo not drawn) [Example 7, 3-[5-bromo-2-(8-chloro-4-oxo-chroman-2-yl)-4-methyl-phenoxy]propanoic Acid] registered an IC50 of 9410 nM. On to `COc1cc(C2CC(=O)c3cccc(Cl)c3O2)c(OCCC(=O)O)cc1Br` (stereo not drawn) [Example 8, 3-[5-bromo-2-(8-chloro-4-oxo-chroman-2-yl)-4-methoxy-phenoxy]propanoic Acid], for which the IC50 stood at 11300 nM. Consider `COc1cc(OCCC(=O)O)c(C2CC(=O)c3cccc(Cl)c3O2)cc1C` (stereo not drawn) [Example 9, 3-[2-(8-chloro-4-oxo-chroman-2-yl)-5-methoxy-4-methyl-phenoxy]propanoic Acid], for which the IC50 was 9410 nM. Consider `COc1cc(C2CC(=O)c3cccc(Cl)c3O2)c(OCCC(=O)O)cc1Cl` (stereo not drawn) [Example 10, 3-[5-chloro-2-(8-chloro-4-oxo-chroman-2-yl)-4-methoxy-phenoxy]propanoic Acid], for which the IC50 worked out at 11400 nM.

Take `O=C(O)CCOc1cc2c(cc1C1CC(=O)c3cccc(Cl)c3O1)OCO2` (stereo not drawn) [Example 12, 3-[[6-(8-chloro-4-oxo-chroman-2-yl)-1,3-benzodioxol-5-yl]oxy]propanoic Acid]: the IC50 is 10100 nM.

Compound `Cc1cc(C2CC(=O)c3cccc(Cl)c3O2)c(OCCC(=O)O)cc1Cl` (stereo not drawn) [Example 14, 3-[5-chloro-2-(8-chloro-4-oxo-chroman-2-yl)-4-methyl-phenoxy]propanoic Acid] had an IC50 of 1050 nM.

`O=C(O)CCOc1cc(OC(F)(F)F)c(Br)cc1C1CC(=O)c2cccc(Cl)c2O1` (stereo not drawn) [Example 15, 3-[4-bromo-2-(8-chloro-4-oxo-chroman-2-yl)-5-(trifluoromethoxy)phenoxy]propanoic Acid] displayed an IC50 of 1500 nM. `O=C(O)CCOc1cc(Br)ccc1[C@@H]1CC(=O)c2cccc(Cl)c2O1` [Example 16-A, 3-[5-bromo-2-[(2S)-8-chloro-4-oxo-chroman-2-yl]phenoxy]propanoic Acid] came in with an IC50 of 2430 nM. Regarding `O=C(O)CCOc1cc(Br)ccc1[C@H]1CC(=O)c2cccc(Cl)c2O1` [Example 16-B, 3-[5-bromo-2-[(2R)-8-chloro-4-oxo-chroman-2-yl]phenoxy]propanoic Acid], the IC50 came out at 480 nM. As to `O=C1CC(c2ccc(C(F)(F)F)cc2OC2CC(C(=O)O)C2)Oc2c(Cl)cccc21` (stereo not drawn) [Example 17, 3-[2-(8-chloro-4-oxo-chroman-2-yl)-5-(trifluoromethyl)phenoxy]cyclobutanecarboxylic Acid], inhibition was half-maximal at 1560 nM (IC50).

`Cc1cc(C2CC(=O)c3cccc(Cl)c3O2)c(OC2CC(C(=O)O)C2)cc1Cl` (stereo not drawn) [Example 18, 3-[5-chloro-2-(8-chloro-4-oxo-chroman-2-yl)-4-methyl-phenoxy]cyclobutanecarboxylic Acid] came in with an IC50 of 765 nM. As to `CC(C)(COc1cc(C(F)(F)F)ccc1C1CC(=O)c2cccc(Cl)c2O1)C(=O)O` (stereo not drawn) [Example 19, 3-[2-(8-chloro-4-oxo-chroman-2-yl)-5-(trifluoromethyl)phenoxy]-2,2-dimethyl-propanoic Acid], the IC50 came to 260 nM. `O=C1CC(c2ccc(C(F)(F)F)cc2OCCOC2CC(C(=O)O)C2)Oc2c(Cl)cccc21` (stereo not drawn) [Example 20, 3-[2-[2-(8-chloro-4-oxo-chroman-2-yl)-5-(trifluoromethyl)phenoxy]ethoxy]cyclobutanecarboxylic Acid]: the IC50 came out at 10 nM. For `O=C(O)COCCOc1cc(C(F)(F)F)ccc1C1CC(=O)c2cccc(Cl)c2O1` (stereo not drawn) [Example 21, 2-[2-[2-(8-chloro-4-oxo-chroman-2-yl)-5-(trifluoromethyl)phenoxy]ethoxy]acetic Acid], the IC50 stood at 4890 nM. Take `Cc1ccc(C2CC(=O)c3cccc(Cl)c3O2)c(OCCCOCC(=O)O)c1` (stereo not drawn) [Example 22, 2-[3-[2-(8-chloro-4-oxo-chroman-2-yl)-5-methyl-phenoxy]propoxy]acetic Acid]: the IC50 was 1990 nM. Then `O=C(O)COCCCOc1cc(C(F)(F)F)ccc1C1CC(=O)c2cccc(Cl)c2O1` (stereo not drawn) [Example 23, 2-[3-[2-(8-chloro-4-oxo-chroman-2-yl)-5-(trifluoromethyl)phenoxy]propoxy]acetic Acid], with 1560 nM. For `O=C(O)COCCCOc1cc(C(F)(F)F)ccc1C1CC(=O)c2ccc(F)c(Cl)c2O1` (stereo not drawn) [Example 24, 2-[3-[2-(8-chloro-7-fluoro-4-oxo-chroman-2-yl)-5-(trifluoromethyl)phenoxy]propoxy]acetic Acid], it took 7140 nM to reach half-maximal inhibition (IC50). Compound `O=C(O)CCCOc1cc(C(F)(F)F)ccc1C1CC(=O)c2ccc(F)c(Cl)c2O1` (stereo not drawn) [Example 25, 4-[2-(8-chloro-7-fluoro-4-oxo-chroman-2-yl)-5-(trifluoromethyl)phenoxy]butanoic Acid] yielded an IC50 of 1180 nM. The compound `O=C(O)COc1cc(C(F)(F)F)ccc1C1CC(=O)c2ccc(F)c(Cl)c2O1` (stereo not drawn) [Example 26, 2-[2-(8-chloro-7-fluoro-4-oxo-chroman-2-yl)-5-(trifluoromethyl)phenoxy]acetic Acid] registered an IC50 of 2780 nM.

As to `CCS(=O)(=O)N[C@H](COc1cc(C(F)(F)F)ccc1C1CC(=O)c2cccc(Cl)c2O1)C(=O)OC` (stereo partly drawn) [Example 27, Methyl (2R)-3-[2-(8-chloro-4-oxo-chroman-2-yl)-5-(trifluoromethyl)phenoxy]-2-(ethylsulfonylamino)propanoate], the IC50 amounted to 580 nM. For the compound `CCS(=O)(=O)N[C@@H](COc1cc(C(F)(F)F)ccc1C1CC(=O)c2cccc(Cl)c2O1)C(=O)O` (stereo partly drawn) [Example 29, (2S)-3-[2-(8-chloro-4-oxo-chroman-2-yl)-5-(trifluoromethyl)phenoxy]-2-(ethylsulfonylamino)propanoic Acid], 1910 nM corresponded to half-maximal inhibition (IC50).

Compound `NS(=O)(=O)N[C@H](COc1cc(C(F)(F)F)ccc1[C@@H]1CC(=O)c2cccc(Cl)c2O1)C(=O)O` [Example 30-A, (2R)-3-[2-[(2S)-8-chloro-4-oxo-chroman-2-yl]-5-(trifluoromethyl)phenoxy]-2-(sulfamoylamino)propanoic Acid] displayed an IC50 of 3370 nM. For `NS(=O)(=O)N[C@H](COc1cc(C(F)(F)F)ccc1[C@H]1CC(=O)c2cccc(Cl)c2O1)C(=O)O` [Example 30-B, (2R)-3-[2-[(2R)-8-chloro-4-oxo-chroman-2-yl]-5-(trifluoromethyl)phenoxy]-2-(sulfamoylamino)propanoic Acid], half-maximal inhibition (IC50) required 10700 nM. As to `CCNS(=O)(=O)N[C@H](COc1cc(C(F)(F)F)ccc1[C@@H]1CC(=O)c2cccc(Cl)c2O1)C(=O)O` [Example 31-A, (2R)-3-[2-[(2S)-8-chloro-4-oxo-chroman-2-yl]-5-(trifluoromethyl)phenoxy]-2-(ethylsulfamoylamino)propanoic acid], the IC50 is 3300 nM.

On to `CCNS(=O)(=O)N[C@H](COc1cc(C(F)(F)F)ccc1[C@H]1CC(=O)c2cccc(Cl)c2O1)C(=O)O` [Example 31-B, (2R)-3-[2-[(2R)-8-chloro-4-oxo-chroman-2-yl]-5-(trifluoromethyl)phenoxy]-2-(ethylsulfamoylamino)propanoic Acid], for which the 50% inhibitory concentration (IC50) turned out to be 10900 nM.

In the case of `COCCCOc1cc(C(F)(F)F)ccc1C1CC(=O)c2ccc(F)c(Cl)c2O1` (stereo not drawn) [Example 32, 8-chloro-7-fluoro-2-[2-(3-methoxypropoxy)-4-(trifluoromethyl)phenyl]chroman-4-one], it took 1930 nM to reach half-maximal inhibition (IC50). Then `O=C1CC(c2ccc(C(F)(F)F)cc2OCCCO)Oc2c1ccc(F)c2Cl` (stereo not drawn) [Example 33, 8-chloro-7-fluoro-2-[2-(3-hydroxypropoxy)-4-(trifluoromethyl)phenyl]chroman-4-one], with 680 nM.

Source of the values: patent US20220388972A1, “CHROMAN-4-ONE DERIVATIVES FOR THE TREATMENT AND PROPHYLAXIS OF HEPATITIS B VIRUS INFECTION” (Hoffmann-La Roche Inc., priority 2018, published 2022).
